Measurements published in PubChem BioAssay (NCI).
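The compound was tested at five concentrations on cells cultured in 96-well plates, with a 48-hour exposure period. Definition used: TGI = concentration required for complete inhibition of growth.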

How the values were obtained:
Assay in all cases: NCI tumour cell line growth inhibition, 48 h
[1] = tested on: HCC-2998 colon
[2] = tested on: SF-295 CNS
[3] = tested on: OVCAR-5 ovarian
[4] = tested on: SNB-19 CNS
[5] = tested on: UO-31 renal
[6] = tested on: IGROV1 ovarian
[7] = tested on: LOX IMVI melanoma
[8] = tested on: OVCAR-8 ovarian
[9] = tested on: SNB-75 CNS
[10] = tested on: NCI-H23 lung
[11] = tested on: TK-10 renal
[12] = tested on: MCF7 breast
[13] = tested on: A498 renal
[14] = tested on: SR leukemia
[15] = tested on: OVCAR-4 ovarian
[16] = tested on: T-47D breast
[17] = tested on: NCI-H226 lung
[18] = tested on: 786-0 renal
[19] = tested on: KM12 colon
[20] = tested on: MOLT-4 leukemia
[21] = tested on: SK-MEL-5 melanoma
[22] = tested on: RXF 393 renal
[23] = tested on: COLO 205 colon
[24] = tested on: UACC-62 melanoma
[25] = tested on: NCI/ADR-RES ovarian
[26] = tested on: MDA-N
[27] = tested on: RPMI-8226 leukemia
[28] = tested on: SF-268 CNS
[29] = tested on: SK-MEL-28 melanoma
[30] = tested on: MDA-MB-231 breast
[31] = tested on: NCI-H522 lung
[32] = tested on: HS 578T breast
[33] = tested on: OVCAR-3 ovarian
[34] = tested on: HCT-116 colon
[35] = tested on: M14 melanoma
[36] = tested on: MDA-MB-435
[37] = tested on: A549 NSCLC
[38] = tested on: CCRF-CEM leukemia
[39] = tested on: NCI-H460 lung
[40] = tested on: SW-620 colon
[41] = tested on: HCT-15 colon
[42] = tested on: U251 CNS
[43] = tested on: SK-MEL-2 melanoma
[44] = tested on: DU-145 prostate
[45] = tested on: BT-549 breast
[46] = tested on: HOP-92 NSCLC
[47] = tested on: HOP-62 NSCLC
[48] = tested on: ACHN renal
[49] = tested on: EKVX NSCLC
[50] = tested on: SK-OV-3 ovarian
[51] = tested on: HT29 colon
[52] = tested on: PC-3 prostate
[53] = tested on: CAKI-1 renal
[54] = tested on: MALME-3M melanoma
[55] = tested on: HL-60(TB) leukemia
[56] = tested on: UACC-257 melanoma
[57] = tested on: K-562 leukemia
[58] = tested on: SN12C renal
[59] = tested on: SF-539 CNS
[60] = tested on: LXFL 529 NSCLC
[61] = tested on: M19-MEL melanoma
[62] = tested on: KM20L2 colon
[63] = tested on: SNB-78 CNS
[64] = tested on: DMS 273 small cell lung

## O=C(O)C(O)C(O)C(O)C(O)CO (configuration not stated)
[1]
  TGI: > 100 µM
[2]
  TGI: > 100 µM
[3]
  TGI: > 100 µM
[4]
  TGI: > 100 µM
[5]
  TGI: > 100 µM
[6]
  TGI: > 100 µM
[7]
  TGI: > 100 µM
[8]
  TGI: > 100 µM
[9]
  TGI: > 100 µM
[10]
  TGI: > 100 µM
[11]
  TGI: > 100 µM
[12]
  TGI: > 100 µM
[13]
  TGI: > 100 µM
[14]
  TGI: > 100 µM
[15]
  TGI: > 100 µM
[16]
  TGI: > 100 µM
[17]
  TGI: > 100 µM
[18]
  TGI: > 100 µM
[19]
  TGI: > 100 µM
[20]
  TGI: > 100 µM
[21]
  TGI: > 100 µM
[22]
  TGI: > 100 µM
[23]
  TGI: > 100 µM
[24]
  TGI: > 100 µM
[25]
  TGI: > 100 µM
[26]
  TGI: > 100 µM
[27]
  TGI: > 100 µM
[28]
  TGI: > 100 µM
[29]
  TGI: > 100 µM
[30]
  TGI: > 100 µM
[31]
  TGI: > 100 µM
[32]
  TGI: > 100 µM
[33]
  TGI: > 100 µM
[34]
  TGI: > 100 µM
[35]
  TGI: > 100 µM
[36]
  TGI: > 100 µM
[37]
  TGI: > 100 µM
[38]
  TGI: > 100 µM
[39]
  TGI: > 100 µM
[40]
  TGI: > 100 µM
[41]
  TGI: > 100 µM
[42]
  TGI: > 100 µM
[43]
  TGI: > 100 µM
[44]
  TGI: > 100 µM
[45]
  TGI: > 100 µM
[46]
  TGI: > 100 µM
[47]
  TGI: > 100 µM
[48]
  TGI: > 100 µM
[49]
  TGI: > 100 µM
[50]
  TGI: > 100 µM
[51]
  TGI: > 100 µM
[52]
  TGI: > 100 µM
[53]
  TGI: > 100 µM
[54]
  TGI: > 100 µM
[55]
  TGI: > 100 µM
[56]
  TGI: > 100 µM
[57]
  TGI: > 100 µM
[58]
  TGI: > 100 µM
[59]
  TGI: > 100 µM

## O=C(CCSC1=NCCCN1)c1ccc(F)cc1
[1]
  TGI: 36.5 µM
[2]
  TGI: 97.3 µM
[3]
  TGI: 29.9 µM
[4]
  TGI: 42.7 µM
[5]
  TGI: 20.6 µM
[6]
  TGI: 44.4 µM
[7]
  TGI: 45.1 µM
[8]
  TGI: > 94.3 µM
[9]
  TGI: 42.6 µM
[10]
  TGI: 43.4 µM
[11]
  TGI: 30.8 µM
[12]
  TGI: 20.4 µM
[13]
  TGI: 44.2 µM
[14]
  TGI: 13.3 µM
[15]
  TGI: > 100 µM
[16]
  TGI: > 70.6 µM
[17]
  TGI: 41.9 µM
[18]
  TGI: 14.1 µM
[19]
  TGI: 46.6 µM
[20]
  TGI: 7.27 µM
[21]
  TGI: 36.4 µM
[22]
  TGI: 33 µM
[23]
  TGI: 11.8 µM
[24]
  TGI: 32.9 µM
[25]
  TGI: > 91.5 µM
[26]
  TGI: 32.4 µM
[27]
  TGI: 14.8 µM
[28]
  TGI: 67.1 µM
[29]
  TGI: 34.6 µM
[30]
  TGI: 49.1 µM
[31]
  TGI: 3.86 µM
[32]
  TGI: 62.6 µM
[33]
  TGI: > 68.2 µM
[34]
  TGI: 39.3 µM
[35]
  TGI: 32.4 µM
[36]
  TGI: 47.6 µM
[37]
  TGI: 40.3 µM
[38]
  TGI: 11.6 µM
[39]
  TGI: 47.7 µM
[40]
  TGI: 15.5 µM
[41]
  TGI: 36.2 µM
[42]
  TGI: 44.8 µM
[43]
  TGI: 36.5 µM
[44]
  TGI: 36 µM
[45]
  TGI: 35.7 µM
[46]
  TGI: 40.6 µM
[47]
  TGI: > 68.9 µM
[48]
  TGI: 31.1 µM
[49]
  TGI: 27.5 µM
[50]
  TGI: 43.5 µM
[51]
  TGI: 40.5 µM
[52]
  TGI: 31 µM
[53]
  TGI: 46.9 µM
[54]
  TGI: 19.1 µM
[55]
  TGI: 30.4 µM
[56]
  TGI: 36.5 µM
[57]
  TGI: 10.1 µM
[58]
  TGI: 43.6 µM
[59]
  TGI: 35.9 µM

## CCOC(=O)C(NC(=O)CC)(N1CCN(c2cc3c(cc2F)c(=O)c(C(=O)O)cn3C2CC2)CC1)C(F)(F)F (configuration not stated)
[1]
  TGI: > 100 µM
[2]
  TGI: > 100 µM
[3]
  TGI: > 100 µM
[4]
  TGI: > 100 µM
[5]
  TGI: > 100 µM
[6]
  TGI: > 100 µM
[7]
  TGI: > 100 µM
[8]
  TGI: > 100 µM
[9]
  TGI: > 100 µM
[10]
  TGI: > 100 µM
[11]
  TGI: > 100 µM
[12]
  TGI: > 100 µM
[13]
  TGI: > 100 µM
[14]
  TGI: > 100 µM
[15]
  TGI: > 100 µM
[16]
  TGI: > 100 µM
[17]
  TGI: > 100 µM
[18]
  TGI: > 100 µM
[19]
  TGI: > 100 µM
[20]
  TGI: > 100 µM
[21]
  TGI: > 100 µM
[22]
  TGI: > 100 µM
[23]
  TGI: > 100 µM
[24]
  TGI: > 100 µM
[25]
  TGI: > 100 µM
[26]
  TGI: > 100 µM
[27]
  TGI: > 100 µM
[28]
  TGI: > 100 µM
[29]
  TGI: > 100 µM
[30]
  TGI: > 100 µM
[31]
  TGI: > 100 µM
[32]
  TGI: > 100 µM
[33]
  TGI: > 100 µM
[34]
  TGI: > 100 µM
[35]
  TGI: > 100 µM
[36]
  TGI: > 100 µM
[37]
  TGI: > 100 µM
[38]
  TGI: > 100 µM
[39]
  TGI: > 100 µM
[40]
  TGI: > 100 µM
[41]
  TGI: > 100 µM
[42]
  TGI: > 100 µM
[43]
  TGI: > 100 µM
[44]
  TGI: > 100 µM
[45]
  TGI: > 100 µM
[46]
  TGI: > 100 µM
[47]
  TGI: > 100 µM
[48]
  TGI: > 100 µM
[49]
  TGI: > 100 µM
[50]
  TGI: > 100 µM
[51]
  TGI: > 100 µM
[52]
  TGI: > 100 µM
[53]
  TGI: > 100 µM
[54]
  TGI: > 100 µM
[55]
  TGI: > 100 µM
[56]
  TGI: > 100 µM
[57]
  TGI: > 100 µM
[58]
  TGI: > 100 µM
[59]
  TGI: > 100 µM

## CCCCCCCC(=O)OCC1OC(n2cc(F)c(=O)[nH]c2=O)C(N)C(OC(=O)CCCCCCC)C1O (configuration not stated)
[1]
  TGI: 35.3 µM
[2]
  TGI: 31.3 µM
[4]
  TGI: 32 µM
[5]
  TGI: 36.6 µM
[6]
  TGI: 47.7 µM
[7]
  TGI: 32.5 µM
[60]
  TGI: 30.9 µM
[8]
  TGI: 31.6 µM
[9]
  TGI: 28.4 µM
[10]
  TGI: 35.9 µM
[11]
  TGI: 56.9 µM
[13]
  TGI: 39.1 µM
[15]
  TGI: 29 µM
[18]
  TGI: 33.5 µM
[19]
  TGI: 42.3 µM
[20]
  TGI: 33.6 µM
[21]
  TGI: 22.3 µM
[61]
  TGI: 36 µM
[22]
  TGI: 31.9 µM
[23]
  TGI: 34 µM
[24]
  TGI: 32.4 µM
[27]
  TGI: 53.5 µM
[28]
  TGI: 35.4 µM
[29]
  TGI: 34.1 µM
[31]
  TGI: 28.9 µM
[33]
  TGI: 41.2 µM
[34]
  TGI: 34.6 µM
[62]
  TGI: 33.7 µM
[35]
  TGI: 32.2 µM
[37]
  TGI: 32.3 µM
[38]
  TGI: 40.4 µM
[39]
  TGI: 34.8 µM
[40]
  TGI: 33.6 µM
[63]
  TGI: 39.5 µM
[41]
  TGI: 34.2 µM
[42]
  TGI: 33.6 µM
[43]
  TGI: 38.5 µM
[46]
  TGI: 34.3 µM
[64]
  TGI: 30.8 µM
[47]
  TGI: 32.5 µM
[48]
  TGI: 37.9 µM
[49]
  TGI: 34 µM
[50]
  TGI: 93.8 µM
[51]
  TGI: 33.4 µM
[53]
  TGI: 41.5 µM
[54]
  TGI: 36.9 µM
[55]
  TGI: 42.3 µM
[56]
  TGI: 33.4 µM
[58]
  TGI: 32.5 µM
[59]
  TGI: 36.1 µM
